Test results reported in US7901894B2, “Kinase inhibitors” (The Research Foundation of State University of New York, priority 1999, dated 2011).
One block for each molecule: values may come before it. *1 amine or outer side, *2 acyl side, *3 side chain or, on linkers, in order; H or OH if unused. Where a SMILES comes first, the peptide text is derived from it. [ ]: non-standard residue; d: D form. X2 = O=C(O)CC(CC(=O)O)NC[C@H](N[*:1])C(=O)[*:2]; Abu(4-PO3H2) = N[C@@H](CCP(=O)(O)O)C(=O)O; X1 = O=C([C@H](CNS(=O)(=O)O)N[*:1])[*:2]; M1 = not defined here

Experiments:
[1] = test system: T1, boronic acid-containing PKA pentapeptide inhibitor 21, Ac-RRGXI-NH2
T1 sequence: RRGXI

[2] = test system: T2, boronic acid-containing PKA pentapeptide inhibitor 22, Ac-RRGXI-NH2
T2 sequence: RRGXI

[3] = test system: ovarian tumor cells from tumor N015; assay: Patient tumor cell culture (ovarian tumors, abdominal carcinoma; tumor N015); format: cell-based, human
Description: The initial non-peptide Src inhibitors have also shown very encouraging results in four different series of cell culture assays. 1) In the NIH 60-tumor cell panel assay, broad activity (as one would expect for a Src inhibitor) was seen against the tumor cell lines, including the prostate lines. […] […].

p56^lck = p56^lck (Homo sapiens, UniProt P06239); settings: analyzed with p56^lck; cited from earlier work
Chain of p56^lck (P06239 whole entry, species assumed): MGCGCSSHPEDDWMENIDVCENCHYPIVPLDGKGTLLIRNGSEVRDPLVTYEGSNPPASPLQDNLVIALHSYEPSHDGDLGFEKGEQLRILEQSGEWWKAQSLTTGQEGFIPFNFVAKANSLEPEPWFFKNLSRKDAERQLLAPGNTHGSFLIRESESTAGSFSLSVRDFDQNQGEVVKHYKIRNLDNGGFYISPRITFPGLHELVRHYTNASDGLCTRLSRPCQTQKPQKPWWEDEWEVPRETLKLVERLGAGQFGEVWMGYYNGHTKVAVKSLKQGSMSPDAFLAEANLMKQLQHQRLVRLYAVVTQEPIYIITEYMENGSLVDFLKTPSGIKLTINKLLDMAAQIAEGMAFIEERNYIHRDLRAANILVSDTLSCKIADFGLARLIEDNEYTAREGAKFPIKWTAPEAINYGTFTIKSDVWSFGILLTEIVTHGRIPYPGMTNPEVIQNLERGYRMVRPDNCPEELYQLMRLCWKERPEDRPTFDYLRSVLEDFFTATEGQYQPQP

pp60^c-src = pp60^c-src (Homo sapiens, UniProt P12931); assay: src Cellular Mimetic assay (RR-SRC phosphorylation); settings: for % Inhibition of 2 mM RR-src at Inhibitor Concentration ( ): Table IV; for inhibition at 1000 µM: read-out: % Inhibition of 2 mM RR-src phosphorylation by src, Cellular Mimetic
Chain of pp60^c-src (P12931 whole entry): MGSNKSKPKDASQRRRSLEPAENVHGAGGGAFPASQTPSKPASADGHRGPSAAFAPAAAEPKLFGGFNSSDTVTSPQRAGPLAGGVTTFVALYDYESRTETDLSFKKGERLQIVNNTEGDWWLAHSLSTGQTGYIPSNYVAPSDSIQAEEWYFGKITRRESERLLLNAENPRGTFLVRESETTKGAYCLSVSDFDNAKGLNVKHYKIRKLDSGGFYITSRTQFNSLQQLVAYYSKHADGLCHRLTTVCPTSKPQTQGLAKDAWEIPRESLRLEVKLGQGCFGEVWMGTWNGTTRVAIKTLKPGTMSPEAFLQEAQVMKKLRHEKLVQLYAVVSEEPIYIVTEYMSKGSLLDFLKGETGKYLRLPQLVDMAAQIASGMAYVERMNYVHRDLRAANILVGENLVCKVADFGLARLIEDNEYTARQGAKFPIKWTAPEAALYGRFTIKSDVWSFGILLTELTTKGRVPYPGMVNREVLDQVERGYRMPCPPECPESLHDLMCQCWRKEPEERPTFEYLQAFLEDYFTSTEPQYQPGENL

PKA [4] = biological target: T3, PKA (Homo sapiens, UniProt P17612); assay: PKA Cellular Mimetic assay; format: biochemical; settings: Cellular Mimetic (C) conditions
Description: (§1) The boronic acid inhibitors 21-24 have two Arg residues in their sequence and therefore will bind to the phosphocellulose paper in addition to Kemptamide (although not as consistently or completely due to one less positive charge). Consequently, when analyzed as inhibitors, the amount of phosphorylated Kemptamide produced was not only counted, but also the amount of phosphorylated inhibitor simultaneously produced (e.g. see 26 below). The net result is that distorted IC50 curves are obtained which show net “stimulation” at higher inhibitor concentrations in some cases. […] The underlying substrate behavior of these “inhibitors” makes an accurate measurement of their inhibition potency impossible with the current assay. However, it does appear from the data that homologating/extending the boronic acid functionality with CH2 groups (homologations/extensions with boronic acid non-peptide src inhibitors may also be carried out) decreases the binding affinity and ability of the compound to function as a substrate.

PKA [5] = biological target: T3, PKA; assay: PKA Literature Mimetic assay; format: biochemical; settings: for Ki: Literature Mimetic (L) conditions
Description: as §1

PKA [6] = biological target: T3, PKA; assay: STAIRe method: form of the protein kinase the inhibitor binds best; format: biochemical
Description: This was a somewhat surprising result since these inhibitors are analogs of the “end product inhibitors” 1 and 12 which must bind simultaneously with MgADP, following phosphate transfer in the generally accepted reaction mechanism for protein kinases.

src = biological target: T4, src (Homo sapiens, UniProt P12931); assay: src Literature Mimetic assay (RR-src phosphorylation); format: biochemical; settings: Inhibitor 1 mM; read-out: % Inhibition of 2 mM RR-src phosphorylation by src, Literature Mimetic
T4 construct: purchased
T4 sequence (P12931 whole entry): as above

[7] = biological target: cAMP-dependent protein kinase (PKA); assay: cell-based or functional assay
[8] = biological target: cAMP-dependent protein kinase (PKA); assay: PKA kinase inhibition assay with Kemptamide substrate, Cellular Mimetic conditions, 0 h preincubation
[9] = biological target: cAMP-dependent protein kinase (PKA); assay: PKA kinase inhibition assay with Kemptamide substrate, Literature Mimetic conditions, 0 h preincubation
[10] = biological target: cAMP-dependent protein kinase (PKA); assay: PKA kinase inhibition assay, Literature Mimetic conditions
[11] = biological target: cAMP-dependent protein kinase (PKA); assay: PKA kinase inhibition assay (Ki, Table I); reference: the same inhibitor under Literature Mimetic conditions
[12] = biological target: cAMP-dependent protein kinase (PKA); assay: PKA kinase inhibition assay, Cellular Mimetic conditions; reference: phosphate inhibitor 1
[13] = biological target: cAMP-dependent protein kinase (PKA); assay: PKA kinase inhibition assay, Literature Mimetic conditions; reference: phosphate inhibitor 1
[14] = biological target: cAMP-dependent protein kinase (PKA); assay: PKA kinase inhibition assay, Literature Mimetic conditions; reference: sulfamic acid inhibitor 8

Molecule: cAMP-dependent protein kinase (PKA)
phosphorylation by PKA on incubation for up to 4 hours without Kemptamide [1]: both 21 and 22 function as substrates with the D-diastereomer 22 being phosphorylated faster
phosphorylation by PKA on incubation for up to 4 hours without Kemptamide [2]: both 21 and 22 function as substrates with the D-diastereomer 22 being phosphorylated faster

Molecule: CC(=O)O[C@H]1C(=O)[C@@]2(C)[C@H]([C@H](OC(=O)c3ccccc3)[C@]3(O)C[C@H](OC(=O)[C@H](O)[C@@H](NC(=O)c4ccccc4)c4ccccc4)C(C)=C1C3(C)C)[C@]1(OC(C)=O)CO[C@@H]1C[C@@H]2O [taxol]
efficacy in tumor cell culture compared with other drugs [3]: more effective than etoposide & cisplatin

Molecule: Cc1cc(O)c2c(c1)C(=O)c1cc(O)cc(O)c1C2=O [Emodin]
mode of inhibition with respect to ATP (p56^lck): ATP-competitive

% Inhibition of 2 mM RR-src at Inhibitor Concentration ( ) (pp60^c-src; 1 mM inhibitor): 0 (1 mM) %
Molecule: O=S(=O)(O)c1ccc2ccccc2c1

mode of inhibition relative to ATP (pp60^c-src; ATP increased up to 1 mM): not ATP-competitive
Molecule: OB(O)c1ccc2ccccc2c1 [compound 27]

binds more tightly than end product phosphate inhibitor 1 (PKA [4]): 108 times
binds more tightly than end product phosphate inhibitor 1 (PKA [5]; Literature Mimetic conditions): 31 times
Molecule: CC[C@H](C)[C@H](NC(=O)[C@H](CNS(=O)(=O)O)NC(=O)CNC(=O)[C@H](CCCNC(=N)N)NC(=O)[C@H](CCCNC(=N)N)NC(C)=O)C(N)=O [compound 8] (Ac-RRG[X1]I-NH2)
enzyme form bound best (STAIRe methodology) (PKA [6]): bind best when MgATP (not MgADP or no nucleotide) is also bound

% Inhibition at 100 μM (std. dev.) (pp60^c-src; Table VI, hydroxynaphthalene series, 198 μM ATP): inactive
Molecule: COC(=O)c1cc2ccccc2cc1N [Compd 1d]

inhibition at 1000 µM (src): 20%
inhibition at 1000 µM (pp60^c-src): 28%
Molecule: NC(=O)CC(=O)O

inhibition at 1000 µM (src): 64%
inhibition at 1000 µM (pp60^c-src): 5%
Molecule: NC(=O)C(O)C(=O)O (centres unmarked)

Molecule: O=P(O)(O)CO
inhibition at 1000 µM (src): 51%
inhibition at 1000 µM (pp60^c-src): 0%

% Inhibition of 2 mM RR-src at Inhibitor Concentration ( ) (pp60^c-src; 100 μM inhibitor): 0 (100 μM) %
Molecule: OB(O)c1cccc2ccccc12

Ki (PKA [5]): 45 µM
Molecule: CC[C@H](C)[C@H](NC(=O)[C@H](CNC(CC(=O)O)CC(=O)O)NC(=O)CNC(=O)[C@H](CCCNC(=N)N)NC(=O)[C@H](CCCNC(=N)N)NC(C)=O)C(N)=O (Ac-RRG[X2]I-NH2)

% Inhibition of 2 mM RR-src at Inhibitor Concentration ( ) (pp60^c-src; 100 μM inhibitor): 10 (100 μM) %
Molecule: OB(O)c1cc2ccccc2o1 [compound 35]

Molecule: CC[C@H](C)[C@H](NC(=O)[C@H](CC(O)P(=O)(O)O)NC(=O)CNC(=O)[C@H](CCCNC(=N)N)NC(=O)[C@H](CCCNC(=N)N)NC(C)=O)C(N)=O (single isomer, unassigned) [inhibitor 3B]
Ki (PKA [5]): 72 µM

inhibition at 1000 µM (src): 24%
inhibition at 1000 µM (pp60^c-src): 0%
Molecule: NC(=O)C(N)C(=O)O (centres unmarked)

Molecule: COc1cccc2c1C(=O)c1c(O)c3c(c(O)c1C2=O)C[C@@](O)(C(=O)CO)C[C@@H]3O[C@H]1C[C@H](N)[C@H](O)[C@H](C)O1 [doxorubicin]
efficacy in tumor cell culture compared with other drugs [3]: more effective than etoposide & cisplatin

Molecule: CC[C@H](C)[C@H](NC(=O)[C@H](CC(O)P(=O)(O)O)NC(=O)CNC(=O)[C@H](CCCNC(=N)N)NC(=O)[C@H](CCCNC(=N)N)NC(C)=O)C(N)=O (single isomer, unassigned) [inhibitor 3A]
Ki (PKA [5]): 18 µM

% Inhibition of 2 mM RR-src at Inhibitor Concentration ( ) (pp60^c-src; 100 μM inhibitor): 0 (100 μM) %
Molecule: NS(=O)(=O)c1ccc2ccccc2c1

Molecule: CC[C@H](C)[C@H](NC(=O)[C@H](CCP(=O)(O)O)NC(=O)CNC(=O)[C@H](CCCNC(=N)N)NC(=O)[C@H](CCCNC(=N)N)NC(C)=O)C(N)=O (Ac-RRG[Abu(4-PO3H2)]I-NH2)
Ki (PKA [5]): 76 µM

% Inhibition of 2 mM RR-src at Inhibitor Concentration ( ) (pp60^c-src; 100 μM inhibitor): 0 (100 μM) %
Molecule: NS(=O)(=O)c1cccc2ccccc12

IC50 µM (cond. C, 0 h preincubation), PKA inhibition [7]: 41 µM
IC50 µM (cond. C, 4 h preincubation), PKA inhibition [7]: 50 µM
IC50 µM (cond. L, 0 h preincubation), PKA inhibition [7]: 278 µM
IC50 µM (cond. L, 4 h preincubation), PKA inhibition [7]: 417 µM
Ki [8]: 25 µM
Ki [9]: 9 µM
Molecule: Ac-RRGAI-NH2 [pentapeptide pseudosubstrate inhibitor 20, Ac-RRGAI-NH2]

Ki [10]: 76 µM
B1: PKA pentapeptide inhibitor 2 (phosphonate), Ac-Arg-Arg-Gly-Ala(M1)-Ile-NH2 (peptide)
peptide: Ac-RRGAI-NH2
modifications: not fully specified (residue 4); printed as Ac-Arg-Arg-Gly-Ala(M1)-Ile-NH2; also: M1 = phosphonate on side chain of residue 4

Ki [10]: 18 µM
B2: PKA pentapeptide inhibitor 3A (hydroxyphosphonate, diastereomer A), Ac-Arg-Arg-Gly-Ala(M1)-Ile-NH2 (peptide)
peptide: Ac-RRGA(M1)I-NH2
modifications: reading uncertain; also: diastereomer A at M1, printed as Ac-Arg-Arg-Gly-Ala(M1)-Ile-NH2

fold change in potency, Literature Mimetic to Cellular Mimetic conditions [11]: 108 fold
B3: PKA pentapeptide inhibitor 1 (end product phosphate inhibitor), Ac-Arg-Arg-Gly-Ala(M1)-Ile-NH2 (peptide)
peptide: Ac-RRGAI-NH2
modifications: not fully specified (residue 4); printed as Ac-Arg-Arg-Gly-Ala(M1)-Ile-NH2; also: M1 = phosphate group on side chain of residue 4

fold change in potency, Literature Mimetic to Cellular Mimetic conditions [11]: 3 fold
B4: PKA pentapeptide inhibitor 10, Ac-Arg-Arg-Gly-Ala(M1)-Ile-NH2 (peptide)
peptide: Ac-RRGA(M1)I-NH2
modifications: reading uncertain; also: M1 group structure shown only in a drawing, printed as Ac-Arg-Arg-Gly-Ala(M1)-Ile-NH2

Ki [10]: 45 µM
B5: PKA pentapeptide inhibitor 11, Ac-Arg-Arg-Gly-Ala(M1)-Ile-NH2 (peptide)
peptide: Ac-RRGA(M1)I-NH2
modifications: not fully specified; printed as Ac-Arg-Arg-Gly-Ala(M1)-Ile-NH2; reading uncertain

fold tighter binding than end product phosphate inhibitor 1 [12]: 108 times
fold tighter binding than end product phosphate inhibitor 1 [13]: 31 times
Ki [10]: 0.16 µM
B6: PKA pentapeptide inhibitor 8 (sulfamic acid), Ac-Arg-Arg-Gly-Ala(M1)-Ile-NH2 (peptide)
peptide: Ac-RRGAI-NH2
modifications: not fully specified (residue 4); printed as Ac-Arg-Arg-Gly-Ala(M1)-Ile-NH2; also: M1 = sulfamic acid on side chain of residue 4

fold less potent than inhibitor 8 [14]: 1880 times
Ki [10]: 300 µM
B7: PKA pentapeptide inhibitor 7 (sulfonamide), Ac-Arg-Arg-Gly-Ala(M1)-Ile-NH2 (peptide)
peptide: Ac-RRGAI-NH2
modifications: not fully specified (residue 4); printed as Ac-Arg-Arg-Gly-Ala(M1)-Ile-NH2; also: M1 = sulfonamide on side chain of residue 4

Ki [10]: 72 µM
B8: PKA pentapeptide inhibitor 3B (hydroxyphosphonate, diastereomer B), Ac-Arg-Arg-Gly-Ala(M1)-Ile-NH2 (peptide)
peptide: Ac-RRGA(M1)I-NH2
modifications: reading uncertain; also: diastereomer B at M1, printed as Ac-Arg-Arg-Gly-Ala(M1)-Ile-NH2
